In series [1] the test system is Ulcerative Colitis. As to conditions: cited from earlier work.
In series [2] the test system is Caco-2 epithelial cell layer. Nature of the series: Gut-On-Chip barrier function (apparent permeability, Papp) with lamina propria-derived cells. As to conditions: for Loss of barrier function: PAM2CSK4, overnight incubation.
Text: (§1) This permeability assay method for adsorption across a gut wall, i.e. caco-2 cells in a gut-on-chip, measures the rate of transport of a test compound added to the basal side of the membrane, for example, inulin-FITC, across to the apical side. […] Conversely, adding a test compound to the apical side may also be used to measure transport to the basal side.
(§2) The Gut-On-Chip modeling of inflammation was used for testing bacterial antigen effects on barrier function and cytokine production. An exemplary bacteria antigen used was PAM2CSK4. […] PAM2CSK4 refers to a synthetic diacylated lipopeptide.
(§3) A co-culture configured as described herein was incubated in a device of the present inventions as described in FIG. 7.
(§4) Cultivation of Caco-2 cells in microfluidic device: Caco-2 cell monolayers were seeded as described herein. Basal regions of cells were exposed to medium under flow. […] Experimental procedure: Cells were used for this experiment between days 7 and 9 post seeding. Donor solutions (including a 100 μg/ml Inulin-FITC) were prepared, and solutions used in this experiment were prewarmed to 37° C. Inulin-FITC was used as an indicator for the determination of the monolayer integrity. […] Inulin-FITC method: 6 mM Inulin-FITC may be added into an apical region of a monolayer; and incubated for 1 hr. A standard curve may be prepared in a separate container, e.g. a 0.5 to 50 μM; HBSS blank containing 1 to 0.5% DMS0 is placed in wells; Aliquots of 200 μl are transferred from the separate container to a solid black plate; Aliquots of 50 μl are transferred from the device to a solid black plate containing 50 μl HBSS with 1-0.5% DMSO; Plates may be read in a fluorescent reader (Excitation/Emission wavelength 480/530 nm); LY rejection (Pc) values are calculated. V. Molecule transport assay: Transport of a molecule across the monolayer may also be determined; a test compound may be added at the apical region of the monolayer then removed from the apical and/or basal media then analyzed using LC-MS method for loss (e.g. apical region) or gain (e.g. basal region).
(§5) Microfluidic co-cultures with HUVEC cells in the bottom chamber, LPDCs from human non-inflamed regions of UC tissue biopsies, LPDCs from UC inflamed tissue biopsies, and samples with no LPDCs, were overlaid with Caco-2 epithelial cell layers.
Series [3] concerns microfluidic co-cultures of Caco-2 epithelial cells, HUVECs and LPDCs. Description: Gut-On-Chip cytokine and chemokine production in co-cultures with lamina propria-derived cells. Type of series: cell-based, human. The protocol:
An exemplary bacteria antigen used was PAM2CSK4. […] PAM2CSK4 refers to a synthetic diacylated lipopeptide.
In order to determine contributory factors to the trends in permeability changes observed by combinations of prednisone treatments as in Example 5, cytokine and chemokine production were measured from media samples obtained from the microfluidic cultures as described in EXAMPLE 5. After an incubation time, media samples were extracted from the microfluidic device then used for determining amounts cytokine and chemokine produced, such as IL-6 and IL-9 in FIG. 18A-B; IL-8 and G-CSF in FIG. 19A-B; GM-CSF and MCP-1 in FIG. 20A-B; MIP1b and PDGF-AB/BB in FIG. 21A-B; and RANTES in FIG. 22. Amounts of cytokine and chemokine protein are measure in pg/ml (picogram per milliliter).

Series [4] deals with Intestine On-Chip with TH1 or TH9 populations. Nature of the series: Intestine On-Chip seeded with plate-differentiated TH1 or TH9 cells, soluble reagents: cytokine production and gene expression. Format: cell-based, human. As to conditions: for IL-10 secretion: TH9 populations. The source says:
Experiments were designed to evaluate whether anti-CD3 and anti-CD28 co-stimulatory activation (soluble reagents) on chip would stimulate on chip T cells (previously activated and differentiated on plates) to continue functioning as activated effector cells within the chip tissue microenvironment. Further, TH1 and TH9 T cell populations underwent testing for an exacerbated response (either tissue alterations or changes in the characteristics of the T cell population) to a specific antigen stimulation, e.g. PAM2CSK4 (TLR2) bacterial agonist, with or without additional co-stimulation (i.e. using soluble reagents). Stimulation on-chip was done as a treatment on Day 7 of culture.
In this example, a TH1 cell population was produced from a population of mature/naive CD4+ T cells, as described in Example 7. This population of CD4+ T cells were co-stimulated with adhered CD3 and soluble CD28 antibodies, without added cytokines, for inducing differentiation of TH1 cells on plates. Unlike co-stimulation with adhered CD3 and soluble CD28 antibodies in the presence of TGFB IL-4, and IFNg cytokines which induced differentiation of TH9 cells, as described herein. Thus, in this example, purified CD4+ T cell populations were plated into tissue culture plates for activation and differentiation into one selected T cell subtype, e.g. TH1 in one plate, and TH9 in another plate.
In order to further test whether PBMCs activated and differentiated with soluble factors were capable of inducing inflammation on chips, pro-inflammatory cytokine production was compared between untreated, PAM2CSK4 treated with and without Tofacitinib. […]
Evaluation of the effects of T-cell activation on the Intestine On-Chip by perfusion of soluble immune activating factors (anti-CD3 and anti-CD2) to the media is shown in FIGS. 36A-B-39A-C. In particular, activated T-cell subsets were evaluated for disease-specific cytokine production.

The subject of series [5] is resident immune cells from healthy and UC patient LP tissue. Description: Secreted cytokine production of resident immune cells cultured on plates, 24 hour bacterial challenge. Format: cell-based, human. As to conditions: immune cells from inflamed UC tissue.
The subject of series [6] is Caco-2 epithelial cell layer.
Text: as §1, §2, §3, §4, §5
For series [7], the system named is Caco-2 epithelial layer.
Text: The chips treated with PAM2CSK4 as a model bacterial antigen are considered infected chips.
Series [8] deals with microfluidic co-cultures of Caco-2 epithelial cells, HUVECs and LPDCs. Nature of the series: Gut-On-Chip cytokine and chemokine production in co-cultures with lamina propria-derived cells. Format: cell-based, human. The source holds these as a separate data set.
In series [9] the test system is TH1 and TH9 CD4+ T cell populations. Nature of the series: On-plate bacterial antigen stimulation of differentiated CD4+ T cell subsets (cytokines, IL-9 activation factors). Format: cell-based, human. The text has this: In this example, a TH1 cell population was produced from a population of CD4+ T cells obtained from a sample of PBMCs. This population of CD4+ T cells were co-stimulated with soluble CD3 and CD28 antibodies without added cytokine stimulation for inducing differentiation of TH1 cells. Unlike the co-stimulation with soluble CD3 and CD28 antibodies in the presence of TGFB, IL-4, and IFNg cytokines for inducing differentiation of TH9 cells as described herein.
Thus, in this example, purified CD4+ T cell populations were plated into tissue culture plates for activation and differentiation into one selected T cell subtype, e.g. Th1 in one plate, and Th2 in another plate.
A sample of each TH cell type was exposed to PAM2CSK4, then log 2 fold changes in protein expression of either pathway molecules or IL-9 were measured and compared to duplicate samples not treated with PAM2CSK4.

The mark [10] stands for this setting: Prednisone alone, non-inflamed LPDC cultures.
The mark [11] stands for this setting: prednisone, inflamed LPDCs, with and without PAM2CSK4.
[12] abbreviates: prednisone, non-inflamed and inflamed LPDCs treated with PAM2CSK4.

Read-outs that look alike come from different tables or passages of the source.

With `C[C@]12C=CC(=O)C=C1CC[C@@H]1[C@@H]2C(=O)C[C@@]2(C)[C@H]1CC[C@]2(O)C(=O)CO` [prednisone], in series [1], the treated patients non-responsive result is recorded as “around 16%”. In addition, the “treated patients with full remission” value in series [1] is listed as ~54%. The “treated patients with partial remission” value in series [1] is ~30%. Moreover, the “Permeability (Papp)” value in [2] (FIG. 17A, prednisone, at least one patient sample of non-inflamed LPDCs) is “some benefit in reducing permeability”; in [2] (FIG. 17A, prednisone, at least one patient sample with inflamed UC LPDC), “undesirable increase”; in [2] (FIG. 17B, overnight, prednisone, inflamed UC LPDCs) it was “did not induce an increase in permeability”; in series [2] (FIG. 17B, overnight, prednisone, non-inflamed UC LPDC), “undesirable increase in permeability”; in series [2] (overnight, prednisone, inflamed UC LPDC samples), “both an increase and a decrease in permeability”; in [2] (prednisone and PAM2CSK4, inflamed UC LPDC), “little benefit”. Besides, the “Permeability (Papp)” value in series [2] (prednisone and PAM2CSK4, non-inflamed UC LPDC) is “range of responses”. Further, the “Permeability (Papp), trend” value is recorded as “trend for decreasing permeability” in series [2] (prednisone and bacterial antigen); “little difference from the non-inflamed LPDC sample” in series [2] (prednisone, inflamed UC LPDC); “increased permeability” in series [2] (prednisone, non-inflamed UC LPDC). In addition, the “Permeability (Papp), effect on average” value in series [2] (prednisone, non-inflamed or inflamed UC LPDC) is on record as “no significant effect”. Moreover, the PDGF-AA/BB production result in series [3] (Prednisone alone) was “did not appear to be a reduction in PDGF-AA/BB”; in series [3] (prednisone, non-inflamed LPDCs) it was “trend for reducing PDGF-AA/BB production”; in series [3] (setting [12]), “trend for reducing PDGF-AA/BB production”. Moreover, the results for the GM-CSF production result in [3] (setting [10]) and in series [3] (setting [11]) were “did not appear to be a reduction in GM-CSF” and “reduced GM-CSF production”, respectively. The results for the MCP-1 production result in series [3] (setting [10]) and in [3] (setting [11]) were “did not appear to be a reduction in MCP-1” and “reduced MCP-1 production”, respectively. In addition, the IL-8 production entry in series [3] (non-inflamed LPDC cultures, Prednisone alone or PAM2CSK4) was “did not appear to be a reduction in IL-8”; in series [3] (setting [11]), “trend for reducing IL-8 production”. The IL-9 production entry in series [3] (prednisone on PAM2CSK4-increased IL-9) is “significantly reduced”; in [3] (prednisone, non-inflamed and inflamed UC LPDC, regardless of PAM2CSK4), “reduced”. Further, the IL-6 production entry in [3] (prednisone, inflamed LPDCs, endogenous or induced by PAM2CSK4) is “reduce IL-6 production”; in series [3] (prednisone, non-inflamed LPDCs), “does not appear to have an effect”. In [3] (setting [12]), the RANTES production entry was “trend for reducing RANTES production”. Moreover, the G-CSF production entry in [3] (prednisone, non-inflamed or inflamed LPDCs, with and without PAM2CSK4) is “trend for reducing G-CSF production”. Also, in series [3] (prophylactic prednisone, UC patient's resident immune cells, noninflamed and inflamed tissues), the “Inflammatory responses (secreted cytokine production) to PAM2CSK4 treatment” value is given as “suppresses the inflammatory responses”.
Take PAM2CSK4: the IL-10 secretion entry in [4] (Pam stimulated vs unstimulated) is listed as “no insignificant differences”. The IL-8 result in series [4] (antigen specific stimulation (TLR2 agonist) on activated TH1 and TH9 chips) is “increased”. In addition, the “Loss of barrier function” value in [2] (4 LP mil/ml) is “Loss of barrier function is shown”; in [2] (LP 1 mil/ml or LP 2 mil/ml), “not at LP 1 mil/ml or LP 2 mil/ml”. The “Response to TLR2 activation (secreted TNF alpha, IL-6, IL-8)” value in [5] was “stronger response”. Moreover, the “Permeability (Papp)” value in series [6] is “show an increase in permeability”. In addition, the IL-6 production entry in [3] (1, 2 and 4 LP mil/ml, versus co-cultures with no PAM2CSK4) is given as “induced a higher level of IL-6 production”; in series [3] (PAM2CSK4, inflamed LPDC samples), “increased IL-6 production”; in series [3] (PAM2CSK4, non-inflamed LPDC samples) it was “not with the non-inflamed LPDC samples”; in series [3] (healthy LP leukocyte co-cultures and epithelial cells without LP), “induce an IL6 response”. Moreover, the IL-9 production entry in series [3] (LP leukocyte co-cultures for each source (healthy, UC non-inflamed, UC inflamed)) is “induce IL-9”; in [3] (PAM2CSK4, non-inflamed and inflamed LPDC co-cultures, over endogenous levels) it was “significantly induced IL-9 production”; in series [3] (epithelial cells without LP cells) it was “not in epithelial cells without LP cells”. Moreover, the “Apical IL-9 cytokine secretion” value in series [3] (apical regions, 4 LP mil/ml) is recorded as “not at 4 LP mil/ml”; in series [8] (apical regions, 1 and 2 LP mil/ml) it was “increased with PAM2CSK4 treatment”. In addition, the “Avg. Z Height of Caco-2 epithelial layer” value in [7] worked out at 84 um+/−11. For the same compound, the “Basal IL-9 cytokine secretion” value in series [8] (4 LP mil/ml, basal areas) is on record as “induced a higher level of IL-9 production”. The “GATA3 and SPI1 (log 2 fold change)” value in series [9] (PAM2CSK4, TH1 populations) is given as “not GATA3 car SPI11”. The “IL-9 mRNA concentrations” value in [9] (PAM2CSK4, TH1 populations) is recorded as “did significantly increase”. In series [9] (PAM2CSK4, TH1 populations), the “IRF4 and IL-9 (log 2 fold change)” value is “produce measurable IRF4 and IL-9”. Further, the “IL-9 and IL-9 activation factors (log 2 fold changes)” value in [9] (PAM2CSK4, TH9 populations in tissue culture plate) is recorded as “did not significantly increase IL-9”. Besides, in [9] (soluble PAM2CSK4, TH1 (CD) and TH9 (UC) cells on-plates), the “Cytokine protein expression post differentiation” value was “increases in the concentration of protein signaling”.
For Tofacitinib (citrate), in series [4] (mixture of PAM2CSK4 and Tofacitinib vs unstimulated), the IL-10 secretion result is listed as “induced significant amounts”.
